According to patent US10851116B2, “Bicyclic amines as novel JAK kinase inhibitors” (LEO Pharma A/S, priority 2017, dated 2020):

Assays:
[1] = in vitro metabolic stability in human liver microsomes; type: in vitro ADME; conditions: compound 0.5 μM, human liver microsomes 0.5 mg/mL, NADPH, 40 min, 37° C.; for CLint scaled at 0.5 μM: human, liver microsomes, read-out: Human liver microsome Clapp (apparent intrinsic clearance)
Method: To assess the in vitro metabolic stability, the compounds (0.5 μM) were incubated in duplicates with human liver microsomes (0.5 mg/mL) in phosphate buffer and NADPH, in 96-well plates for 40 min (37° C.), using a liquid handling robot (Hamilton Microlab Star). Sample aliquots were taken at 0, 5, 10, 20 and 40 min, and dispensed into cold acetonitrile, in order to stop the reactions. The plates were centrifuged for 30 minutes before the samples were analyzed using liquid chromatography coupled to a time-of-flight mass spectrometer (AB Sciex API5600). The compound depletion over time was used to estimate the elimination rate constant, from which the apparent intrinsic clearance, Clapp, was calculated and the values are listed in table 2.

TYK2 = TYK2 (Homo sapiens (Human), UniProt P29597); experiment: JAK kinase assay (HTRF), TYK2; type: biochemical; conditions: catalytic domain (aa 871-1187), GST-tag, ATP at Km (13 μM)
Sequence of TYK2 (P29597 871-1187): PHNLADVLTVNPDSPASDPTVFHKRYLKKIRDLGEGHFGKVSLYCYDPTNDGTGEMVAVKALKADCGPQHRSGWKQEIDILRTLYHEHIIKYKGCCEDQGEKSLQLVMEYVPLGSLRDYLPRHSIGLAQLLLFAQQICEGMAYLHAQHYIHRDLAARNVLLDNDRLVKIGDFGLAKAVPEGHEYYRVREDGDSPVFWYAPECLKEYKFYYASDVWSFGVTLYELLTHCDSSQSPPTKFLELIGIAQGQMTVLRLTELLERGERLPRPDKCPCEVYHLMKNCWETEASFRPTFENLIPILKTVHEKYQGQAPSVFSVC
Method: (§1) Human baculovirus-expressed JAK1, 2, 3 and TYK2 were purchased from Carna Biosciences, Inc. All four purified enzymes contain only the catalytic domain. JAK1 (aa 850-1154) and TYK2 (aa 871-1187) are expressed with an N-terminally fused GST-tag, and JAK2 and JAK3 with an N-terminally fused His-tag.
(§2) Inhibition of phosphorylation of a synthetic peptide was measured in an HTRF-based assay using the TK substrate-Biotin from the Cisbio HTRFKinEASE TK kit. First, 2 μl of TK solution (TK substrate-biotin in kinase buffer [1× enzymatic buffer from HTRFKinEASE TK kit, 1 mM DTT]) is added to a plate containing 1 μl prediluted compound (final assay concentration DMSO: 0.75%). Then, 5 μl kinase-ATP mix (prepared in kinase buffer) is added to the wells and the plates are incubated at RT for 20-30 min. For all four kinases a concentration of ATP that corresponded to the Km for ATP was used. The final concentrations of buffers, substrate, kinase and ATP were: JAK1: 50 mM Hepes buffer pH 7.0, 0.01% BSA, 10 mM MgCl2, 1 mM DTT, 7 μM ATP, 50 nM SEB, 1 μM TK Substrate-Biotin and 5 ng JAK1; JAK2: 50 mM Hepes buffer pH 7.0, 0.01% BSA, 5 mM MgCl2, 1 mM DTT, 4 μM ATP, 1 μM TK Substrate-Biotin and 0.1 ng JAK2; JAK3: 50 mM Hepes buffer pH 7.0, 0.01% BSA, 5 mM MgCl2, 1 mM DTT, 2 μM ATP, 1 μM TK Substrate-Biotin and 0.3 ng JAK3; TYK2: 50 mM Hepes buffer pH 7.0, 0.01% BSA, 5 mM MgCl2, 1 mM DTT, 13 μM ATP, 50 nM SEB, 1 μM TK Substrate-Biotin and 0.8 ng TYK2. Thereafter, the kinase reaction is stopped by adding 4 μl detection mix (final concentrations: 50 mM Hepes buffer pH 7.0, 0.01% BSA, 0.8 M KF, 20 mM EDTA, 42 nM Streptavidin-XL665 and 1:400 STK Ab Cryptate) and the plates are incubated overnight in the dark. The HTRF signal is read using an Envision plate reader.

JAK1 = JAK1 (Homo sapiens (Human), UniProt P23458); experiment: JAK kinase assay (HTRF), JAK1; type: biochemical; conditions: catalytic domain (aa 850-1154), GST-tag, ATP at Km (7 μM)
Sequence of JAK1 (P23458 850-1154): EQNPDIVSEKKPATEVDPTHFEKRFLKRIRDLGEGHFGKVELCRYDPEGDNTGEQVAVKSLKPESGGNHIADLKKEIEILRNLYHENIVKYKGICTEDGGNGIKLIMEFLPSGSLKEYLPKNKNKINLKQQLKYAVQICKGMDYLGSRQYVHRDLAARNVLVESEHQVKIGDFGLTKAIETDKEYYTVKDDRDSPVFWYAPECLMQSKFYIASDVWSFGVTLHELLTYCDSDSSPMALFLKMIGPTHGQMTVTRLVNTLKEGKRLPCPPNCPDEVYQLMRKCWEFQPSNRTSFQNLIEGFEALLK
Method: as §1, §2

JAK3 = JAK3 (Homo sapiens (Human), UniProt P52333); experiment: JAK kinase assay (HTRF), JAK3; type: biochemical; conditions: catalytic domain, His-tag, ATP at Km (2 μM)
Sequence of JAK3 (P52333 822-1111): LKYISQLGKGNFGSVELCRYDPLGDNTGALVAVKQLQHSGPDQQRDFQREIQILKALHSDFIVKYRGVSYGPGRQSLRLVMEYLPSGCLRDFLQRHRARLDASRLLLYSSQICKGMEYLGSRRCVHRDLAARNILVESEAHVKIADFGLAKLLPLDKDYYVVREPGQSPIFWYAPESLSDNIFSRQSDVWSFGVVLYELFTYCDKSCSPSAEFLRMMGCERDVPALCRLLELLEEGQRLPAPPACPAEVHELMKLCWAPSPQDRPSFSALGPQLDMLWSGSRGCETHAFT
Method: as §1, §2

JAK2 = JAK2 (Homo sapiens (Human), UniProt O60674); experiment: JAK kinase assay (HTRF), JAK2; type: biochemical; conditions: catalytic domain, His-tag, ATP at Km (4 μM)
Sequence of JAK2 (O60674 849-1124): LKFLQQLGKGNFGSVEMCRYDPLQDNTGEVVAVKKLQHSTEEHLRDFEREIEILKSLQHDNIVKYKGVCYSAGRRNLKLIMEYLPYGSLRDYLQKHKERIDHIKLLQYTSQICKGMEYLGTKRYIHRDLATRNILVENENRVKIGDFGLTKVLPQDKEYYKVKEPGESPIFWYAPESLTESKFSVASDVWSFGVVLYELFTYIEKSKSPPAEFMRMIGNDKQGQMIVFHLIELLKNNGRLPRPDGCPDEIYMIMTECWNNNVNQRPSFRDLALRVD
Method: as §1, §2

| Structure (SMILES) | CLint scaled at 0.5 μM [1] [mL/min/kg] | EC50 (TYK2) [nM] | EC50 (JAK1) [nM] | EC50 (JAK3) [nM] | EC50 (JAK2) [nM] | Human liver microsome Clapp (apparent intrinsic clearance) [1] [mL/min/kg] |
| --- | --- | --- | --- | --- | --- | --- |
| Cc1cc(N2CC[C@H]3CCN(c4ncnc5[nH]ccc45)C[C@@]3(C)C2)ncc1C#N (racemic) [Example 8, 6-[(4aS*,8aR*)-8a-methyl-7-(7H-pyrrolo[2,3-d]pyrimidin-4-yl)-3,4,4a,5,6,8-hexahydro-1H-2,7-naphthyridin-2-yl]-4-methyl-pyridine-3-carbonitrile] | 200 | 2110 | 86 | 21 | 269 |  |
| Cc1cc(N2C[C@H]3CCN(c4ncnc5[nH]ccc45)C[C@@]3(C)C2)ncc1C#N (racemic) [Example 40, 6-[(3aR*,7aS*)-3a-methyl-5-(7H-pyrrolo[2,3-d]pyrimidin-4-yl)-1,3,4,6,7,7a-hexahydropyrrolo[3,4-c]pyridin-2-yl]-4-methyl-pyridine-3-carbonitrile] | 200 | 722 | 3 | 46 | 28 |  |
| C[C@]12CN(c3ccc(C#N)nn3)C[C@H]1CCN(c1ncnc3[nH]ccc13)C2 (racemic) [Example 42] | 53 | 574 | 10 | 78 | 53 |  |
| C[C@]12CN(c3cnc(C#N)cn3)C[C@H]1CCN(c1ncnc3[nH]ccc13)C2 (racemic) [Example 43] | 55 | 232 | 3 | 37 | 22 |  |
| Cc1nc(N2C[C@H]3CCN(c4ncnc5[nH]ccc45)C[C@@]3(C)C2)ccc1C#N (racemic) [Example 45, 6-[(3aR*,7aS*)-3a-methyl-5-(7H-pyrrolo[2,3-d]pyrimidin-4-yl)-1,3,4,6,7,7a-hexahydropyrrolo[3,4-c]pyridin-2-yl]-2-methyl-pyridine-3-carbonitrile] |  | 1190 | 30 | 120 | 103 |  |
| C[C@]12CN(C(=O)C3(C#N)CCCC3)C[C@H]1CCN(c1ncnc3[nH]ccc13)C2 (racemic) [Example 46, 1-[(3aS*,7aS*)-3a-methyl-5-(7H-pyrrolo[2,3-d]pyrimidin-4-yl)-1,3,4,6,7,7a-hexahydropyrrolo[3,4-c]pyridine-2-carbonyl]cyclopentanecarbonitrile] |  | 1510 | 97 | 705 | 625 |  |
| C[C@]12CN(c3ccc(C#N)cn3)C[C@H]1CCN(c1ncnc3[nH]ccc13)C2 (racemic) [Example 47] | 133 | 159 | 5 | 26 | 30 |  |
| C[C@]12CN(C#N)CC[C@H]1CCN(c1ncnc3[nH]ccc13)C2 (relative stereo) [Example 2, (4aR*,8aS*)-8a-methyl-7-(7H-pyrrolo[2,3-d]pyrimidin-4-yl)-3,4,4a,5,6,8-hexahydro-1H-2,7-naphthyridine-2-carbonitrile] |  | 27 | 1 | 25 | 6 | 62 |
| CC[C@]12CN(C(C)=O)CC[C@H]1CCN(c1ncnc3[nH]ccc13)C2 (relative stereo) [Example 15, 1-[(4aR*,8aS*)-8a-ethyl-7-(7H-pyrrolo[2,3-d]pyrimidin-4-yl)-3,4,4a,5,6,8-hexahydro-1H-2,7-naphthyridin-2-yl]ethanone] |  | 1040 | 121 | 69 | 453 |  |
| CC[C@]12CN(C=O)CC[C@H]1CCN(c1ncnc3[nH]ccc13)C2 (relative stereo) [Example 16, (4aR*,8aS*)-8a-ethyl-7-(7H-pyrrolo[2,3-d]pyrimidin-4-yl)-3,4,4a,5,6,8-hexahydro-1H-2,7-naphthyridine-2-carbaldehyde] | 116 | 176 | 13 | 43 | 41 |  |
| CC[C@@]12CN(c3ncnc4[nH]ccc34)CC[C@@H]1CCN(S(N)(=O)=O)C2 (relative stereo) [Example 17, (4aR*,8aS*)-8a-ethyl-7-(7H-pyrrolo[2,3-d]pyrimidin-4-yl)-3,4,4a,5,6,8-hexahydro-1H-2,7-naphthyridine-2-sulfonamide] | 197 | 45 | 2 | 3 | 7 |  |
| CC[C@]12CN(c3nnc(Br)s3)CC[C@H]1CCN(c1ncnc3[nH]ccc13)C2 (relative stereo) [Example 20, 2-[(4aR*,8aS*)-8a-ethyl-7-(7H-pyrrolo[2,3-d]pyrimidin-4-yl)-3,4,4a,5,6,8-hexahydro-1H-2,7-naphthyridin-2-yl]-5-bromo-1,3,4-thiadiazole] | 200 | 269 | 4 | 5 | 17 |  |
| CC[C@]12CN(C#N)CC[C@H]1CCN(c1ncnc3[nH]ccc13)C2 (relative stereo) [Example 23, (4aR*,8aS*)-8a-ethyl-7-(7H-pyrrolo[2,3-d]pyrimidin-4-yl)-3,4,4a,5,6,8-hexahydro-1H-2,7-naphthyridine-2-carbonitrile] |  | 11 | 2 | 14 | 4 | 200 |
| CC[C@]12CN(c3nc(C#N)cs3)CC[C@H]1CCN(c1ncnc3[nH]ccc13)C2 (relative stereo) [Example 25, 2-[(4aR*,8aS*)-8a-ethyl-7-(7H-pyrrolo[2,3-d]pyrimidin-4-yl)-3,4,4a,5,6,8-hexahydro-1H-2,7-naphthyridin-2-yl]thiazole-4-carbonitrile] |  | 1110 | 46 | 29 | 139 |  |
| CC12CN(c3ccc(C#N)cn3)C[C@H]1CCN(c1ncnc3[nH]ccc13)C2 (stereo in doubt) [Example 33, 6-[(3aS,7aS)-3a-methyl-5-(7H-pyrrolo[2,3-d]pyrimidin-4-yl)-1,3,4,6,7,7a-hexahydropyrrolo[3,4-c]pyridin-2-yl]pyridine-3-carbonitrile] | 166 | 59 | 1 | 8 | 5 |  |
| CC[C@]12CN(c3ncnc4[nH]ccc34)CC[C@H]1CCN(S(N)(=O)=O)C2 [Example 19, (4aS,8aR)-8a-ethyl-7-(7H-pyrrolo[2,3-d]pyrimidin-4-yl)-3,4,4a,5,6,8-hexahydro-1H-2,7-naphthyridine-2-sulfonamide] |  | 1880 | 146 | 151 | 208 |  |
| CC[C@@]12CN(C#N)CC[C@@H]1CCN(c1ncnc3[nH]ccc13)C2 [Example 21, (4aS,8aR)-8a-ethyl-7-(7H-pyrrolo[2,3-d]pyrimidin-4-yl)-3,4,4a,5,6,8-hexahydro-1H-2,7-naphthyridine-2-carbonitrile] |  | 988 | 80 | 578 | 187 |  |
| C[C@@]12CN(C#N)C[C@@H]1CCN(c1ncnc3[nH]ccc13)C2 [Example 28, (3aR,7aR)-3a-methyl-5-(7H-pyrrolo[2,3-d]pyrimidin-4-yl)-1,3,4,6,7,7a-hexahydropyrrolo[3,4-c]pyridine-2-carbonitrile] |  | 2470 | 240 | 2180 | 827 |  |
| CCC12CNCCC1CCN(c1ncnc3[nH]ccc13)C2 (stereo not drawn) [Intermediate 10, 8a-ethyl-7-(7H-pyrrolo[2,3-d]pyrimidin-4-yl)-1,2,3,4,4a,5,6,8-octahydro-2,7-naphthyridine] |  | 1980 | 16 | 157 | 25 |  |
